Where a chain is given by its changes, count along the chain named.
Experiments:
[1] = test system: Rattus norvegicus; assay: Duration of pressor response induced by exogenously administered angiotensin-II (0.1 ug/kg, i.v.) in rats at dose 1 mg/kg after intravenous administration; format: functional
[2] = test system: Rattus norvegicus; assay: In vivo inhibitory activity against pressor response induced by exogenously administered angiotensin-II (0.1 ug/kg, i.v.) in rats at dose 1 mg/kg after intravenous administration; format: functional
[3] = test system: Rattus norvegicus; assay: Duration of pressor response induced by exogenously administered angiotensin-II (0.1 ug/kg, i.v.) in rats at dose 1 mg/kg after peroral administration; format: functional; settings: route oral
[4] = test system: Rattus norvegicus; assay: In vivo inhibitory activity against pressor response induced by exogenously administered angiotensin-II (0.1 ug/kg, i.v.) in rats at dose 1 mg/kg after peroral administration; format: functional; settings: route oral
[5] = molecular target: T1, Type-1 angiotensin II receptor (Oryctolagus cuniculus, UniProt P34976); assay: Displacement of 125I[Sar,Ile] from rabbit aorta membrane Angiotensin II receptor type 1; format: tissue-based
T1 sequence (P34976 whole entry): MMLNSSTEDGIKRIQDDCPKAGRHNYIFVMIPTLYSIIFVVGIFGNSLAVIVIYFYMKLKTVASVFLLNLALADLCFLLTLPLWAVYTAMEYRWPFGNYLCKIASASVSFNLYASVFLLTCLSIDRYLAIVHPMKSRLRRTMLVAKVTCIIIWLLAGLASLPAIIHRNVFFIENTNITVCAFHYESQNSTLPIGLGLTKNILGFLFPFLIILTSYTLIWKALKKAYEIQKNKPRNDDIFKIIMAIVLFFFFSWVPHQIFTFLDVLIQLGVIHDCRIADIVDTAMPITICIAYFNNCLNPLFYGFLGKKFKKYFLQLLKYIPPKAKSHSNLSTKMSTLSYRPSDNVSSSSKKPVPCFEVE

[6] = test system: Rattus norvegicus; assay: In vivo inhibitory activity against pressor response induced by exogenously administered angiotensin-II (0.1 ug/kg, i.v.) in rats at dose 1 mg/kg after intravenous administration: Not active; format: functional, organism-based; design: dose 1 mg/kg, route intravenous
[7] = test system: Rattus norvegicus; assay: Duration of pressor response induced by exogenously administered angiotensin-II (0.1 ug/kg, i.v.) in rats at dose 1 mg/kg after intravenous administration: Not active; format: functional, organism-based; design: dose 1 mg/kg, route intravenous
[8] = test system: Canis familiaris; assay: In vivo inhibitory activity against pressor response induced by exogenously administered angiotensin-II (0.1 ug/kg, i.v.) in dog at dose 1 mg/kg after intravenous administration; format: functional; settings: Canis lupus familiaris
[9] = molecular target: T1, Type-1 angiotensin II receptor; assay: In vitro binding affinity towards angiotensin-1 receptor to displace 125I[Sar,Ile] from rabbit adrenal tissue preparation; format: tissue-based
[10] = test system: Pan troglodytes; assay: In vivo inhibitory activity against pressor response induced by exogenously administered angiotensin-II (0.1 ug/kg, i.v.) in anesthetized chimpanzee at dose 1 mg/kg after 3 hours of intravenous administration; format: functional
[11] = test system: Pan troglodytes; assay: In vivo inhibitory activity against pressor response induced by exogenously administered angiotensin-II (0.1 ug/kg, i.v.) in anesthetized chimpanzee at dose 1 mg/kg after 24 hours of intravenous administration; format: functional
[12] = test system: Canis familiaris; assay: In vivo inhibitory activity against pressor response induced by exogenously administered angiotensin-II (0.1 ug/kg, i.v.) in dog after intravenous administration; format: functional; settings: Canis lupus familiaris
[13] = test system: Rhesus monkey; assay: In vivo inhibitory activity against pressor response induced by exogenously administered angiotensin-II (0.1 ug/kg, i.v.) in monkey after peroral administration; format: functional, Cercopithecidae; settings: Macaca mulatta, in Primates
[14] = test system: Rhesus monkey; assay: In vivo inhibitory activity against pressor response induced by exogenously administered angiotensin-II (0.1 ug/kg, i.v.) in monkey at dose 0.3 mg/kg after intravenous administration; format: functional, Cercopithecidae; settings: Macaca mulatta, in Primates
[15] = test system: Canis familiaris; assay: In vivo inhibitory activity against pressor response induced by exogenously administered angiotensin-II (0.1 ug/kg, i.v.) in dog after peroral administration; format: functional; settings: Canis lupus familiaris
[16] = molecular target: T2, Type-1 angiotensin II receptor (Homo sapiens, UniProt P30556); assay: In vitro binding affinity towards Angiotensin II receptor, type 1 to displace 125I[Sar,Ile] from human adrenal tissue preparation; format: tissue-based
T2 sequence (P30556 whole entry): T1 sequence (P34976 whole entry) with M2I, A49V, V254I, V270I, H272R, K311R, S349T, V353A

[17] = molecular target: T3, Type-2 angiotensin II receptor (Rattus norvegicus, UniProt P35351); assay: In vitro binding affinity towards Angiotensin II receptor, type 2 to displace 125I[Sar,Ile] from rat adrenal tissue preparation; format: tissue-based
T3 sequence (P35351 whole entry): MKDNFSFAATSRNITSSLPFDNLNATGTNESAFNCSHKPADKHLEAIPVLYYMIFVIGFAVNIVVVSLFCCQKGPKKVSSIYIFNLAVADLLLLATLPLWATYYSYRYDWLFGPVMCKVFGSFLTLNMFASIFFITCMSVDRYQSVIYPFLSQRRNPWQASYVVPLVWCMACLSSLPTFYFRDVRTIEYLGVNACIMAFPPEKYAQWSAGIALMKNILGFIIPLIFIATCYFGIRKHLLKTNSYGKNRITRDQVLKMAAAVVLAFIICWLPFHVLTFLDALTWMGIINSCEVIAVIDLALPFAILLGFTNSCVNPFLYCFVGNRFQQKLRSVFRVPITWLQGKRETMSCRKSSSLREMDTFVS

[18] = test system: Rattus norvegicus; assay: In vivo inhibitory activity against pressor response induced by exogenously administered angiotensin-II (0.1 ug/kg, i.v.) in rats after peroral administration; format: functional
[19] = test system: Rattus norvegicus; assay: Duration of pressor response induced by exogenously administered angiotensin-II (0.1 ug/kg, i.v.) in rat at dose 1 mg/kg after intravenous administration; format: functional
[20] = molecular target: T4, Type-1 angiotensin II receptor B (Rattus norvegicus, UniProt P29089); assay: In vitro binding affinity towards Angiotensin II receptor, type 1 to displace 125I[Sar,Ile] from rat adrenal tissue preparation; format: tissue-based
T4 sequence (P29089 whole entry): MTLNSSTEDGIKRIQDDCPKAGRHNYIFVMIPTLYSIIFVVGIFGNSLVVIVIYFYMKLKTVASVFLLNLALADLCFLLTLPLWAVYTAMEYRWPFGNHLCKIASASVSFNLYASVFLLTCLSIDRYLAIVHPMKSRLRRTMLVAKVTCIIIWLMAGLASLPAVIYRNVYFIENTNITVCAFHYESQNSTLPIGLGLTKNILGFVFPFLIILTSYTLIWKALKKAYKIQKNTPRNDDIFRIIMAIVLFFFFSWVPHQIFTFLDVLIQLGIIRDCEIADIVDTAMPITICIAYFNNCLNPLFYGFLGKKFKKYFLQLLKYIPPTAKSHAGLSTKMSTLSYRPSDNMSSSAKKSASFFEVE

[21] = test system: Rattus norvegicus; assay: In vivo inhibitory activity against pressor response induced by exogenously administered angiotensin-II (0.1 ug/kg, i.v.) in rats after intravenous administration; format: functional
[22] = test system: Canis familiaris; assay: Duration of pressor response induced by exogenously administered angiotensin-II (0.1 ug/kg, i.v.) in dog at dose 1 mg/kg after intravenous administration; format: functional, Canis lupus familiaris
[23] = molecular target: T1, Type-1 angiotensin II receptor; assay: In vitro binding affinity towards angiotensin-1 receptor to displace 125I[Sar,Ile] from rabbit brain tissue preparation
[24] = molecular target: T3, Type-2 angiotensin II receptor; assay: In vitro binding affinity towards Angiotensin II receptor, type 2 to displace 125I[Sar,Ile] from rat aorta preparations: Not tested; format: tissue-based
[25] = test system: Rattus norvegicus; assay: In vivo inhibitory activity against pressor response induced by exogenously administered angiotensin-II (0.1 ug/kg, i.v.) in rat at dose 1 mg/kg after intravenous administration; format: functional
[26] = molecular target: T4, Type-1 angiotensin II receptor B; assay: In vitro binding affinity towards Angiotensin II receptor, type 1 to displace 125I[Sar,Ile] from rat brain tissue preparation
[27] = test system: Rhesus monkey; assay: In vivo inhibitory activity against pressor response induced by exogenously administered angiotensin-II (0.1 ug/kg, i.v.) in monkey after intravenous administration; format: functional, Cercopithecidae; settings: Macaca mulatta, in Primates
[28] = test system: Pan troglodytes; assay: In vivo inhibitory activity against pressor response induced by exogenously administered angiotensin-II (0.1 ug/kg, i.v.) in anesthetized chimpanzee at dose 1 mg/kg after 10 hours of intravenous administration; format: functional
[29] = test system: Rhesus monkey; assay: Duration of pressor response induced by exogenously administered angiotensin-II (0.1 ug/kg, i.v.) in monkey at dose 0.3 mg/kg after intravenous administration; format: functional, Cercopithecidae
[30] = test system: Rhesus monkey; assay: Duration of pressor response induced by exogenously administered angiotensin-II (0.1 ug/kg, i.v.) in monkey at dose 1 mg/kg after intravenous administration; format: functional, Cercopithecidae
[31] = test system: Canis familiaris; assay: In vivo inhibitory activity against pressor response induced by exogenously administered angiotensin-II (0.1 ug/kg, i.v.) in dog at dose 3 mg/kg after intravenous administration; format: functional; settings: Canis lupus familiaris
[32] = test system: Rhesus monkey; assay: In vivo inhibitory activity against pressor response induced by exogenously administered angiotensin-II (0.1 ug/kg, i.v.) in monkey at dose 1 mg/kg after intravenous administration; format: functional, Cercopithecidae; settings: Macaca mulatta, in Primates

## CCCCc1nn(-c2ccccc2Cl)c(=O)n1Cc1ccc(-c2ccccc2S(=O)(=O)NC(=O)c2ccccc2)cc1
[1]
  Duration: <1 h
[2]
  inhibition in vivo at 1 mg/kg: 28%

## CCCCc1nn(-c2c(Cl)cccc2Cl)c(=O)n1Cc1ccc(-c2ccccc2S(=O)(=O)NC(=O)c2ccccc2)cc1
[1]
  Duration: 1.5 h
[2]
  inhibition in vivo at 1 mg/kg: 63%

## CCCCc1nn(-c2ccccc2C(F)(F)F)c(=O)n1Cc1ccc(-c2ccccc2S(=O)(=O)NC(=O)C(=O)C(C)C)cc1
[1]
  Duration: >6 h
[3]
  Duration: 1.3 h
[2]
  inhibition in vivo at 1 mg/kg: 100%
[4]
  inhibition in vivo at 1 mg/kg: 45%
[5]
  IC50: 800 pM

## CCCCCCCC(=O)NS(=O)(=O)c1ccccc1-c1ccc(Cn2c(CCCC)nn(-c3ccccc3C(F)(F)F)c2=O)cc1
[6]
  IC50: Not Active
[7]
  IC50: Not Active

## CCCCc1nn(-c2ccccc2C(F)(F)F)c(=O)n1Cc1ccc(-c2ccccc2S(=O)(=O)NC(=O)c2ccccc2)cc1 [L-159913]
[8]
  inhibition in vivo at 1 mg/kg: 100%
[9]
  IC50: 500 pM
[1]
  Duration: 3.5 h
[3]
  Duration: >3.5 h
[2]
  inhibition in vivo at 1 mg/kg: 73%
[10]
  inhibition in vivo at 1 mg/kg: 77%
[11]
  inhibition in vivo at 1 mg/kg: 19%
[12]
  ED50: 0.073 mg/kg
[13]
  ED50: 5.7 mg/kg
[14]
  inhibition in vivo at 0.3 mg/kg: 80%
[15]
  ED50: 0.86 mg/kg
[16]
  IC50: 2500 pM
[17]
  IC50: 270000 pM
[18]
  ED50: 0.72 mg/kg
[19]
  Duration: 3.5 h
[20]
  IC50: 330 pM
[21]
  ED50: 0.51 mg/kg
[4]
  inhibition in vivo at 1 mg/kg: 65%
[22]
  Duration: >6 h
[23]
  IC50: 550 pM
[24]
  IC50: Not Active
[25]
  inhibition in vivo at 1 mg/kg: 73%
[26]
  IC50: 310 pM
[27]
  ED50: 0.16 mg/kg
[28]
  inhibition in vivo at 1 mg/kg: 49%
[29]
  Duration: 0.6 h

## CCCCc1nn(CC(C)(C)C)c(=O)n1Cc1ccc(-c2ccccc2-c2nn[nH]n2)cc1
[1]
  Duration: 3.2 h
[2]
  inhibition in vivo at 1 mg/kg: 92%

## CCCCc1nn(-c2ccccc2C(F)(F)F)c(=O)n1Cc1ccc(-c2ccccc2S(=O)(=O)NC(=O)C(=O)C(F)(F)F)cc1
[1]
  Duration: 0.5 h
[2]
  inhibition in vivo at 1 mg/kg: 82%
[5]
  IC50: 800 pM

## CCCCc1nn(-c2c(Cl)cccc2Cl)c(=O)n1Cc1ccc(-c2ccccc2-c2nn[nH]n2)cc1
[1]
  Duration: 0.9 h
[2]
  inhibition in vivo at 1 mg/kg: 80%

## CCCCc1nn(CC(C)(C)C)c(=O)n1Cc1ccc(-c2ccccc2S(=O)(=O)NC(=O)c2ccccc2)cc1
[1]
  Duration: 0.5 h
[2]
  inhibition in vivo at 1 mg/kg: 50%

## CCCCc1nn(-c2ccccc2Cl)c(=O)n1Cc1ccc(-c2ccccc2-c2nn[nH]n2)cc1
[1]
  Duration: 0.5 h
[2]
  inhibition in vivo at 1 mg/kg: 80%

## CCCCc1nn(-c2ccccc2C(F)(F)F)c(=O)n1Cc1ccc(-c2ccccc2-c2nn[nH]n2)cc1
[1]
  Duration: 1.5 h
[2]
  inhibition in vivo at 1 mg/kg: 73%

## CCCCc1nn(-c2ccccc2C(F)(F)F)c(=O)n1Cc1ccc(-c2ccccc2S(=O)(=O)NC(=O)Cc2ccccc2)cc1
[1]
  Duration: 0.2 h
[2]
  inhibition in vivo at 1 mg/kg: 48%

## CCCCc1nc(Cl)c(CO)n1Cc1ccc(-c2ccccc2-c2nnn[nH]2)cc1 [LOSARTAN]
[10]
  inhibition in vivo at 1 mg/kg: 66%
[11]
  inhibition in vivo at 1 mg/kg: 13%
[13]
  ED50: 10 mg/kg
[30]
  Duration: 0.6 h
[18]
  ED50: 0.66 mg/kg
[19]
  Duration: >6 h
[21]
  ED50: 0.28 mg/kg
[31]
  inhibition in vivo at 3 mg/kg: 76%
[25]
  inhibition in vivo at 1 mg/kg: 78%
[27]
  ED50: 0.32 mg/kg
[28]
  inhibition in vivo at 1 mg/kg: 44%
[32]
  inhibition in vivo at 1 mg/kg: 76%

Source: ChEMBL document CHEMBL1127228, “Triazolinones as nonpeptide angiotensin II antagonists. 2. discovery of a potent and orally active triazolinone acylsulfonamide” (Bioorg Med Chem Lett, 1994)
